Values of other authors as cited in patent US10806768B2, “Composition for promoting metallothionein production” (priority 2016, dated 2020).

Structure (SMILES): CC(=O)N[C@@H](CS)C(=O)O [NAC, N-Acetyl-Cysteine]
- oxidative glutathione disulfide (GSSG) level, NAC group (only at a trend level of significance, p=0.09): increased
- CGI-I, NAC versus placebo groups (p>0.69): no statistically significant difference
- glutathione (GSH) level in blood, NAC group (versus placebo, p<0.05): significantly higher
- DNA strand break and oxidative damage, NAC versus placebo groups (week 12): no significant difference
- GSH/GSSG ratio, NAC versus placebo groups (week 12): no significant difference
- blood homocysteine levels, NAC versus placebo groups (week 12): no significant difference
